Laboratory results published in patent US6703213B2, “Substrate analogs for MurG, methods of making same and assays using same” (The Trustees of Princeton University, priority 1998, dated 2004).

Target: T1, wild type E. coli MurG (Escherichia coli, UniProt P17443)
T1 construct: made in house; host or cells: E. coli BL21(DE3)pLysS, pET3a vector
Assay: Initial rate assays with purified, soluble enzyme
Format: biochemical
Conditions: rapid equilibrium sequential mechanism assumed; 0.08 μM purified MurG; UDP-GlcNAc as varied substrate
Protocol: The following solutions are prepared prior to the assays: 1) 177.3 μM [^14C]-UDP-GlcNAc in H2O (0.05 mCi/mL); 2) 1.5 mM UDP-GlcNAc in H2O; 3) biotinylated Lipid I analog (1b) at 0.5 μg/μL; 4) 10×reaction buffer containing 50 mM HEPES (pH 7.9) and 5 mM MgCl2. The enzyme stock is prepared by diluting the purified enzyme with TBSE to a final concentration of 0.04 μg/μL in a 0.5 mL tube and storing at 4° C. for two days prior to running the assays.
Thirty reactions are prepared by individually mixing 2 μL of 10×reaction buffer with an appropriate amount of biotinylated Lipid I analog (1b), radioactive UDP-GlcNAc, nonradioactive UDP-GlcNAc, and H2O to a final volume of 18 μl. The final concentration for the Lipid I analog (1b) are 7 μM, 10 μM, 15 μM, 30 μM, 100 μM, and for UDP-GlcNAc 11 μM, 15 μM, 20 μM, 40 μM, 100 μM, 200 μM. Reactions are initiated by adding 2 μL of the enzyme stock and are run for 4 minutes at 24° C. Reactions are stopped by adding 10 μl of 1% (w/v) SDS.
Deionized H2O is added to each tube to a final volume of approximately 250 μL and the suspension is transferred to a […] 96-well filter plate fitted to a vacuum-line fitted MultiScreen Assay System (Millipore). The resin is washed 15 times with 0.2 mL deionized H2O. […] Samples are counted immediately on a Beckman LS5000 scintillation counter.

T1 sequence (P17443 whole entry): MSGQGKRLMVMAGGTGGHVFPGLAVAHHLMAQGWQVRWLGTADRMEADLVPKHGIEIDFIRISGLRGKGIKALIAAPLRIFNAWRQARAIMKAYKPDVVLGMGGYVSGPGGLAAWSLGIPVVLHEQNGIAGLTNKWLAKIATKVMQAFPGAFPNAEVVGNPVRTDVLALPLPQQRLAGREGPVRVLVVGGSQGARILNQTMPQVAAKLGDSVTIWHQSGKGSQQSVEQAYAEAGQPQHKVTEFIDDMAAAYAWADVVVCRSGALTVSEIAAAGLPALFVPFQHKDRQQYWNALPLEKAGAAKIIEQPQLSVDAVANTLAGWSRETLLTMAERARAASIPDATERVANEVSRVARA

CC(=O)N[C@H]1[C@@H](OP(=O)(O)OP(=O)(O)OC[C@H]2O[C@@H](n3ccc(=O)[nH]c3=O)[C@H](O)[C@@H]2O)O[C@H](CO)[C@@H](O)[C@@H]1O [UDP-GLCNAC, UDP-N-acetylglucosamine]
KUDP-GLCNAC: 110 µM
